Source: PMC9370056, “Pyrimidines-Based Heterocyclic Compounds: Synthesis, Cytoxicity Evaluation and Molecular Docking” (Molecules, 2022)
Where a name gives a salt, the structure may show the parent alone.

Columns and labels:
[1] = MTT cytotoxicity assay, normal lung fibroblasts MRC-5; conditions: human, MRC-5 normal lung fibroblast cells
Description: (§3) Preliminary in vitro anticancer activity of two compounds (2, and 3a) against the growth of five human cancer cell lines (prostate carcinoma PC3, liver carcinoma HepG-2, human colon cancer HCT-116, human breast cancer MCF-7, human lung cancer A-549) and normal human lung fibroblasts (MRC-5) were performed using the MTT assay as described in the experimental section. The inhibitory potency of the screened compounds against the tested cell lines was compared to vinblastine sulfate as a reference anticancer drug.
(§4) MRC-5 (normal human Lung fibroblast cells) were obtained from VACSERA Tissue Culture Unit. […] The normal human lung fibroblasts (MRC-5) cells were propagated in Dulbecco’s Modified Eagle’s Medium (DMEM) supplemented with 10% heat-inactivated fetal bovine serum, 1% L-glutamine, HEPES buffer, and 50µg/mL gentamycin. […] All cells were maintained at 37 °C in a humidified atmosphere with 5% CO2 and were subcultured two times a week. Chemicals used: Dimethyl sulfoxide (DMSO), MTT (3-(4,5-dimethylthiazol-2-yl)-2,5-diphenyl tetrazolium bromide), crystal violet, and trypan blue dye were purchased from Sigma (St. Louis, MO, USA). Fetal bovine serum, DMEM, RPMI-1640, HEPES buffer solution, L-glutamine, gentamycin, and 0.25% trypsin-EDTA were purchased from Lonza. Crystal violet stain (1%): composed of 0.5% (w/v) crystal violet and 50% methanol then made up to volume with deionized water and filtered through a Whatman No.1 filter paper.
(§5) For cytotoxicity assay, the normal human lung fibroblasts (MRC-5) cells were seeded in a 96-well plate at a cell concentration of 1 × 10^4 cells per well in 100 µL of growth medium. Fresh medium containing different concentrations of the test sample was added after 24 h of seeding. Serial two-fold dilutions of the tested chemical compound were added to confluent cell monolayers dispensed into 96-well, flat-bottomed microtiter plates (Falcon; Franklin, NJ, USA) using a multichannel pipette. The microtiter plates were incubated at 37 °C in a humidified incubator with 5% CO2 for a period of 24 h. Three wells were used for each concentration of the test sample. Control cells were incubated without the test sample and with or without DMSO. […] After incubation of the cells, viable cell yield was determined by a colorimetric method. After incubating for 24 h, the numbers of viable cells were determined by the MTT test. The cytotoxic concentration (CC50), the concentration required to cause toxic effects in 50% of intact cells, was estimated from graphic plots of the dose–response curve for each conc. using GraphPad Prism software (San Diego, CA. USA).

PC3 and MRC-5 cell lines = assay: Selectivity index, CC50 on normal cells / IC50 on cancer cells; format: cell-based, human; conditions: CC50 on MRC-5 / IC50 on PC3
Text: The selectivity index (SI) is a measure of the drug candidate’s selectivity towards cancer cells rather than normal cells. It can be calculated as the ratio between the tested compound CC50 on normal cells and its IC50 on cancer cells.

[2] = system: human prostate carcinoma cell line PC3; assay: MTT viability assay, PC3 prostate carcinoma; format: cell-based; conditions: for IC50: 24 h
Description: (§1) For antitumor assays, the human prostate carcinoma cell line PC3 was suspended in medium at a concentration of 5 × 10^4 cell/well in Corning® 96-well tissue culture plates, then incubated for 24 h. The tested compounds were then added into 96-well plates (three replicates) to achieve eight concentrations for each compound. Six vehicle controls with media or 0.5 % DMSO were run for each 96-well plate as a control. […] Briefly, the media was removed from the 96-well plate and replaced with 100 µL of fresh culture RPMI-1640 medium without phenol red then 10 µL of the 12 mM MTT stock solution (5 mg of MTT in 1 mL of PBS) to each well including the untreated controls. The 96-well plates were then incubated at 37 °C and 5% CO2 for 4 h. An 85 µL aliquot of the media was removed from the wells, and 50 µL of DMSO was added to each well and mixed thoroughly with a pipette and incubated at 37 °C for 10 min. Then, the optical density was measured at 590 nm with the microplate reader (Sunrise, Tecan Inc, Morrisville, NC, USA) to determine the number of viable cells and the percentage of viability was calculated as [(ODt/ODc)] × 100% where ODt is the mean optical density of wells treated with the tested sample and ODc is the mean optical density of untreated cells. The relation between surviving cells and drug concentration was plotted to obtain the survival curve of each tumor cell line after treatment with the specified compound.

MRC cell line = assay: Microscopic observation of treated normal cells (crystal violet); format: cell-based, human; conditions: 50 µg/mL, 100×, relative to untreated cells
Description: (§2) This experiment was performed as previously described in the procedure for antitumor activity. After the end of the treatment at 50 µg/mL concentration, the plates were inverted to remove the medium, the wells were washed three times with 300 µL of phosphate buffered saline (pH 7.2), and then the cells were fixed to the plate with 10% formalin for 15 min at room temperature. The fixed cells were then stained with 100 µL of 0.25% crystal violet for 20 min. The stain was removed, and the plates were rinsed using deionized water to remove the excess stain and then allowed to dry. The cellular morphology was observed using an inverted microscope (CKX41; Olympus, Tokyo, Japan) equipped with a digital microscopy camera to capture the images representing the morphological changes compared to control cells. The cytopathic effects (morphological alterations) were microscopically detected at 100×.

PC3 cell line = assay: Microscopic observation of treated tumor cells (crystal violet); format: cell-based, human; conditions: 50 µg/mL, 100×, relative to untreated cells
Description: as §2

human lung cancer A-549 = assay: MTT assay, A-549; format: cell-based; conditions: A549, Table 1, MTT
Description: [The procedure below names another cell line; the source lists this cell line under the same test.] as §1

[3] = system: human colon cancer HCT-116; assay: MTT assay, HCT-116; format: cell-based; conditions: Table 1, MTT
Description: [The procedure below names another cell line; the source lists this cell line under the same test.] as §1

[4] = system: human breast cancer MCF-7; assay: MTT assay, MCF-7; format: cell-based; conditions: MCF7, Table 1, MTT
Description: [The procedure below names another cell line; the source lists this cell line under the same test.] as §1

[5] = system: normal human lung fibroblasts (MRC-5); assay: MTT cytotoxicity assay, normal lung fibroblasts MRC-5; conditions: Homo sapiens, MRC5, 24 h, read-out: IC50 Values MRC-5
liver carcinoma HepG-2 = assay: MTT assay, HepG-2; format: cell-based; conditions: Homo sapiens, HepG2; Table 1, MTT
Description: [The procedure below names another cell line; the source lists this cell line under the same test.] as §1

[6] = system: normal human lung fibroblasts (MRC-5)
Description: as §3, §4, §5

[7] = Homo sapiens, Table 2, MTT, three replicates

Compound	CC50 at 24 h [1] [µM]	SI (selectivity index) (PC3 and MRC-5 cell lines)	IC50 [2, 7] [µM]	Morphological changes of MRC cells (MRC cell line)	Morphological changes of PC3 cells (PC3 cell line)	also measured
N#Cc1c(-c2ccccc2)nc(NN=Cc2ccc([N+](=O)[O-])cc2)[nH]c1=O [Compound 3i, 2-(2-(4-Nitrobenzylidene)hydrazinyl)-6-oxo-4-phenyl-1,6-dihydropyrimidine-5-carbonitrile]	82 ± 3	2.18	37 ± 2			
N#Cc1c(-c2ccccc2)nc(N/N=C/c2ccc(Br)cc2)[nH]c1=O [Compound 3b, 2-(2-(4-Bromobenzylidene)hydrazinyl)-6-oxo-4-phenyl-1,6-dihydropyrimidine-5-carbonitri-le]	147 ± 4		21 ± 1	no significant apoptotic effect	the cancer cells shrank and lost their normal shape	
Cc1ccccc1/C=N/Nc1nc(-c2ccccc2)c(C#N)c(=O)[nH]1 [Compound 3e, 2-(2-(2-Methylbenzylidene)hydrazinyl)-6-oxo-4-phenyl-1,6-dihydropyrimidine-5-carboni-trile]	428 ± 16	2.34	182 ± 5			
CC[C@]1(O)C[C@@H]2CN(CCc3c([nH]c4ccccc34)[C@@](C(=O)OC)(c3cc4c(cc3OC)N(C)[C@H]3[C@@](O)(C(=O)OC)[C@H](OC(C)=O)[C@]5(CC)C=CCN6CC[C@]43[C@@H]65)C2)C1 [Vinblastine sulfate, reference compound]	65 ± 2	1.40				IC50 (human lung cancer A-549): 27 µM; IC50 [3]: 4 µM; IC50 [4]: 6 µM; IC50 [5]: 65 µM; IC50 (liver carcinoma HepG-2): 3 µM; IC50 ([2]; Homo sapiens, Table 1, MTT): 46 µM
N#Cc1c(-c2ccccc2)nc2n(c1=O)C(c1ccccc1)C(c1ccccc1)=NN2 (stereo not drawn) [Compound 5, 6-Oxo-3,4,8-triphenyl-4,6-dihydro-1H-pyrimido[2,1-c]-1,2,4-triazine-7-carbonitrile]	263 ± 7		72 ± 2	no significant apoptotic effect	the cancer cells shrank and lost their normal shape	
COc1cccc(/C=N/Nc2nc(-c3ccccc3)c(C#N)c(=O)[nH]2)c1 [Compound 3f, 2-(2-(3-Methoxybenzylidene)hydrazinyl)-6-oxo-4-phenyl-1,6-dihydropyrimidine-5-carbo-nitrile]	339 ± 11		88 ± 2	no significant apoptotic effect	the cancer cells shrank and lost their normal shape	
3-Hydroxy-6-oxo-8-phenyl-2,6-dihydro-1H-pyrimido[2,1-c]-1,2,4-triazine-7-carbonitrile [Compound 6]		2.17				CC50 [6]: 453 ± 13 µM; IC50 ([2]; Table 2, MTT, three replicates): 208 ± 7 µM
N#Cc1c(-c2ccccc2)nc(NN)[nH]c1=O [Compound 2, 2-Hydrazino-6-oxo-4-phenyl-1,6-dihydropyrimidine-5-carbonitrile]	532 ± 14	2.05				IC50 (human lung cancer A-549): 264 µM; IC50 [3]: 180 µM; IC50 [4]: 236 µM; IC50 [5]: 532 µM; IC50 (liver carcinoma HepG-2): 99 µM; IC50 ([2]; Homo sapiens, Table 1, MTT): 258 µM
N#Cc1c(-c2ccccc2)nc(N/N=C2\C(=O)Nc3ccccc32)[nH]c1=O [Compound 4, 6-Oxo-2-(2-(isatin-3-ylidene)hydrazinyl)-4-phenyl-1,6-dihydropyrimidine-5-carbonitrile]	348 ± 11	0.57	603 ± 19			
N#Cc1c(-c2ccccc2)nc(N/N=C/c2ccccc2Cl)[nH]c1=O [Compound 3d, 2-(2-(2-Chlorobenzylidene)hydrazinyl)-6-oxo-4-phenyl-1,6-dihydropyrimidine-5-carbonitri-le]	44 ± 1	2.52	17 ± 1			fold more potent than vinblastine sulfate ([2]; PC3, from IC50 values): 2 to 3 fold
N#Cc1c(-c2ccccc2)nc(NN=CC=Cc2ccccc2)[nH]c1=O [Compound 3h, 6-Oxo-4-phenyl-2-(2-(3-phenylallylidene)hydrazinyl)-1,6-dihydropyrimidine-5-carbonitrile]	180 ± 9		44 ± 2	no significant apoptotic effect	the cancer cells shrank and lost their normal shape	
N#Cc1c(-c2ccccc2)nc(NN=Cc2ccccc2)[nH]c1=O [Compound 3a, 2-(2-Benzylidenehydrazinyl)-6-oxo-4-phenyl-1,6-dihydropyrimidine-5-carbonitrile]	92 ± 3	0.99				IC50 (human lung cancer A-549): 98 µM; IC50 [3]: 149 µM; IC50 [4]: 81 µM; IC50 [5]: 92 µM; IC50 (liver carcinoma HepG-2): 59 µM; IC50 ([2]; Homo sapiens, Table 1, MTT): 93 µM
N#Cc1c(-c2ccccc2)nc(N/N=C/c2ccc(Cl)cc2)[nH]c1=O [Compound 3c, 2-(2-(4-Chlorobenzylidene)hydrazinyl)-6-oxo-4-phenyl-1,6-dihydropyrimidine-5-carbonitri-le]	675 ± 19	1.93	349 ± 9			
N#Cc1c(-c2ccccc2)nc(N/N=C/c2ccc(O)cc2)[nH]c1=O [Compound 3g, 2-(2-(4-Hydroxybenzylidene)hydrazinyl)-6-oxo-4-phenyl-1,6-dihydropyrimidine-5-carboni-trile]	311 ± 14		64 ± 3	no significant apoptotic effect	the cancer cells shrank and lost their normal shape	
